Values after ≈ are worked out from the molar mass of the structure shown.
Key:
P. aeruginosa ATCC 27853 = test: Broth microdilution MIC in CAMHB; assay type: cell-based; settings: Pseudomonas aeruginosa, ATCC27853; MHB; read-out: Minimum Inhibitory Concentration, P. aeruginosa ATCC 27853
In short: (§1)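 Hyper-permeable or efflux-deficient strains serve to probe outer-membrane penetration. Growth inhibition is scored visually after 16-20 h at 37° C in CAMHB, starting from 2-8×10^5 CFU/mL.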

E. coli AG100 = test: Broth microdilution MIC in CAMHB; assay type: cell-based; settings: Escherichia coli; E. coli AG100 (wild-type parent); MHB; read-out: Minimum Inhibitory Concentration, E. coli AG100
In short: as §1

[1] = test system: K. pneumoniae UMM producing SHV-5 and KPC-2; test: Broth microdilution MIC in CAMHB; assay type: cell-based; settings: Klebsiella pneumoniae, read-out: Minimum Inhibitory Concentration, K. pneumoniae UMM
In short: as §1

E. coli 901C = test: Broth microdilution MIC in CAMHB; assay type: cell-based; settings: Escherichia coli; E. coli 901C (hyper-permeable); MHB; read-out: Minimum Inhibitory Concentration, E. coli 901C
In short: as §1

E. coli AG100A = test: Broth microdilution MIC in CAMHB; assay type: cell-based; settings: Escherichia coli, read-out: Minimum Inhibitory Concentration, E. coli AG100A
In short: as §1

A. baumannii ATCC 19606 = test: Broth microdilution MIC in CAMHB; assay type: cell-based; settings: Acinetobacter baumannii, ATCC19606; MHB; read-out: Minimum Inhibitory Concentration, A. baumannii ATCC 19606
In short: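 Lowest compound concentration with no visible growth after 16-20 h at 37 °C defines MIC. Plates of 2-fold serial dilutions in cation-adjusted Mueller Hinton broth received 2-8×10^5 CFU/mL of exponentially grown cells, per CLSI methods; panel spans reference, hyper-permeable and efflux-pump-deleted strains.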

[2] = test system: K. pneumoniae 848844 producing SHV-11 and KPC-2; test: Broth microdilution MIC in CAMHB; assay type: cell-based; settings: Klebsiella pneumoniae, read-out: Minimum Inhibitory Concentration, K. pneumoniae 848844
In short: as §1

[3] = test system: P. aeruginosa (ΔmexAB-oprM); test: Broth microdilution MIC in CAMHB; assay type: cell-based; settings: Pseudomonas aeruginosa, read-out: Minimum Inhibitory Concentration, P. aeruginosa ΔmexAB-OprM
In short: as §1

P. aeruginosa PBP3 = target: T1, P. aeruginosa PBP3 (Pseudomonas aeruginosa, UniProt G3XD46); test: Bocillin-FL fluorescence polarization competition binding assay, P. aeruginosa PBP3; settings: fluorescence polarization competition binding assay using Bocillin-FL
T1 construct: made in house
T1 sequence (G3XD46 whole entry): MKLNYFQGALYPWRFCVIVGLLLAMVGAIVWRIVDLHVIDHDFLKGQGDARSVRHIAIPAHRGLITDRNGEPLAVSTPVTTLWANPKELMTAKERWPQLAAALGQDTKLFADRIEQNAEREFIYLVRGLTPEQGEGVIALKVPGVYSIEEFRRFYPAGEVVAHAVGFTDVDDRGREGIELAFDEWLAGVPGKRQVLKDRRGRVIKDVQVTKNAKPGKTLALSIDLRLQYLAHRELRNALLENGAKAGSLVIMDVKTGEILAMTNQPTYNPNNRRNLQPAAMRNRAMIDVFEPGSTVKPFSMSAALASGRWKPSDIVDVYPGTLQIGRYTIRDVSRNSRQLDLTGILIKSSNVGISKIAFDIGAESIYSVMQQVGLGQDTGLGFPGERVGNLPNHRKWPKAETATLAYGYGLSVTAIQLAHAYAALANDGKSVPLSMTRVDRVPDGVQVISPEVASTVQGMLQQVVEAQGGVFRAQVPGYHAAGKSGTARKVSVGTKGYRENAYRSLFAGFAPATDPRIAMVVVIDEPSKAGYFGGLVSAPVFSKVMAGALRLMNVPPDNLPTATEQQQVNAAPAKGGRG
In short: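 Inhibitor competition with Bocillin-FL for P. aeruginosa PBP3 was followed by fluorescence polarization on a Cytation3 (BioTek) reader, using g-factor 0.96, 490 nm excitation and 520 nm emission. The enzyme was at 0.75 μM and the probe at 0.1 μM in Hepes/NaCl/glycerol buffer, 80 μl per well. FP was recorded immediately after probe addition for up to 60 minutes. Potency was expressed as EC50, the concentration that reduces bound probe by 50%.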

| SMILES | MIC (P. aeruginosa ATCC 27853) | MIC (E. coli AG100) | MIC [1] | MIC (E. coli 901C) | MIC (E. coli AG100A) | MIC (A. baumannii ATCC 19606) | MIC [2] | MIC [3] | P. aeruginosa PBP3 Potency (P. aeruginosa PBP3) |
| --- | --- | --- | --- | --- | --- | --- | --- | --- | --- |
| CCN1CCN(C(=O)NC(C(=O)N[C@H]2Cc3cccc(C(=O)O)c3OB2O)c2cccc(N)c2)C(=O)C1=O (stereo partly drawn) [Example 72, (3R)-3-(2-(3-aminophenyl)-2-(4-ethyl-2,3-dioxopiperazine-1-carboxamido)acetamido)-2-hydroxy-3,4-dihydro-2H-benzo[e][1,2]oxaborinine-8-carboxylic acid] | > 128 µg/mL | 32 to 64 µg/mL (≈ 61.1 to 122 µM) | 32 to 64 µg/mL (≈ 61.1 to 122 µM) | < 0.25 µg/mL | 2 to 4 µg/mL (≈ 3.82 to 7.64 µM) | > 128 µg/mL | > 128 µg/mL | 8 to 16 µg/mL (≈ 15.3 to 30.6 µM) | D (D represents a potency <10 μM) |
| CCN1CCN(C(=O)NC(C(=O)N[C@H]2Cc3cccc(C(=O)O)c3OB2O)c2cccc(NC(=O)c3ccc(O)c(O)c3Cl)c2)C(=O)C1=O (stereo partly drawn) [Example 73, (3R)-3-(2-(3-(2-chloro-3,4-dihydroxybenzamido)phenyl)-2-(4-ethyl-2,3-dioxopiperazine-1-carboxamido)acetamido)-2-hydroxy-3,4-dihydro-2H-benzo[e][1,2]oxaborinine-8-carboxylic acid] | 2 to 4 µg/mL (≈ 2.88 to 5.76 µM) | 2 to 4 µg/mL (≈ 2.88 to 5.76 µM) | 0.5 to 1 µg/mL (≈ 0.721 to 1.44 µM) | < 0.25 µg/mL | 2 to 4 µg/mL (≈ 2.88 to 5.76 µM) | 0.5 to 1 µg/mL (≈ 0.721 to 1.44 µM) | 8 to 16 µg/mL (≈ 11.5 to 23.1 µM) | 0.5 to 1 µg/mL (≈ 0.721 to 1.44 µM) | D (D represents a potency <10 μM) |
| CCN1CCN(C(=O)NC(C(=O)N[C@H]2Cc3cccc(C(=O)O)c3OB2O)c2ccc(O)c(NC(=O)c3ccc(O)c(O)c3Cl)c2)C(=O)C1=O (stereo partly drawn) [Example 74, (3R)-3-(2-(3-(2-chloro-3,4-dihydroxybenzamido)-4-hydroxyphenyl)-2-(4-ethyl-2,3-dioxopiperazine-1-carboxamido)acetamido)-2-hydroxy-3,4-dihydro-2H-benzo[e][1,2]oxaborinine-8-carboxylic acid] | 8 to 16 µg/mL (≈ 11.3 to 22.5 µM) | 8 to 16 µg/mL (≈ 11.3 to 22.5 µM) | > 128 µg/mL | < 0.25 µg/mL | 8 to 16 µg/mL (≈ 11.3 to 22.5 µM) | > 128 µg/mL | > 128 µg/mL | 0.5 to 1 µg/mL (≈ 0.704 to 1.41 µM) | D (D represents a potency <10 μM) |
| CCN1CCN(C(=O)NC(C(=O)N[C@H]2Cc3cccc(C(=O)O)c3OB2O)c2cccc([N+](=O)[O-])c2)C(=O)C1=O (stereo partly drawn) [Example 75, (3R)-3-(2-(4-ethyl-2,3-dioxopiperazine-1-carboxamido)-2-(3-nitrophenyl)acetamido)-2-hydroxy-3,4-dihydro-2H-benzo[e][1,2]oxaborinine-8-carboxylic acid] | > 128 µg/mL | > 128 µg/mL | > 128 µg/mL | 0.5 to 1 µg/mL (≈ 0.904 to 1.81 µM) | 8 to 16 µg/mL (≈ 14.5 to 28.9 µM) | > 128 µg/mL | > 128 µg/mL | 32 to 64 µg/mL (≈ 57.8 to 116 µM) | D (D represents a potency <10 μM) |
| CCN1CCN(C(=O)NC(C(=O)N[C@H]2Cc3cccc(C(=O)O)c3OB2O)c2cccc(NS(C)(=O)=O)c2)C(=O)C1=O (stereo partly drawn) [Example 76, (3R)-3-(2-(4-ethyl-2,3-dioxopiperazine-1-carboxamido)-2-(3-(methylsulfonamido)phenyl)acetamido)-2-hydroxy-3,4-dihydro-2H-benzo[e][1,2]oxaborinine-8-carboxylic acid] | > 128 µg/mL | 8 to 16 µg/mL (≈ 13.3 to 26.6 µM) | 32 to 64 µg/mL (≈ 53.2 to 106 µM) | < 0.25 µg/mL | 2 to 4 µg/mL (≈ 3.33 to 6.65 µM) | > 128 µg/mL | > 128 µg/mL | 8 to 16 µg/mL (≈ 13.3 to 26.6 µM) | D (D represents a potency <10 μM) |
| CCN1CCN(C(=O)NC(C(=O)N[C@H]2Cc3cccc(C(=O)O)c3OB2O)c2cc(O)ccc2O)C(=O)C1=O (stereo partly drawn) [Example 77, (3R)-3-(2-(2,5-dihydroxyphenyl)-2-(4-ethyl-2,3-dioxopiperazine-1-carboxamido)acetamido)-2-hydroxy-3,4-dihydro-2H-benzo[e][1,2]oxaborinine-8-carboxylic acid] | > 128 µg/mL | > 128 µg/mL | > 128 µg/mL | 8 to 16 µg/mL (≈ 14.8 to 29.6 µM) | 32 to 64 µg/mL (≈ 59.2 to 118 µM) | > 128 µg/mL | > 128 µg/mL | > 128 µg/mL | B (B represents a potency between 30 μM and 500 μM inclusive) |
| N=C(N)NCCN1CCN(C(=O)NC(C(=O)N[C@H]2Cc3ccc(F)c(C(=O)O)c3OB2O)c2ccc(C(=O)O)c(F)c2)C(=O)C1=O (stereo partly drawn) [Example 78, (3R)-3-(2-(4-carboxy-3-fluorophenyl)-2-(4-(2-guanidinoethyl)-2,3-dioxopiperazine-1-carboxamido)acetamido)-7-fluoro-2-hydroxy-3,4-dihydro-2H-benzo[e][1,2]oxaborinine-8-carboxylic acid] | 32 to 64 µg/mL (≈ 49.6 to 99.2 µM) | > 128 µg/mL | > 128 µg/mL | 2 to 4 µg/mL (≈ 3.1 to 6.2 µM) | > 128 µg/mL | > 128 µg/mL | > 128 µg/mL | 32 to 64 µg/mL (≈ 49.6 to 99.2 µM) | D (D represents a potency <10 μM) |
| NCCN1CCN(C(=O)NC(C(=O)N[C@H]2Cc3cccc(C(=O)O)c3OB2O)c2cc(Cl)c(O)cc2F)C(=O)C1=O (stereo partly drawn) [Example 87, (3R)-3-(2-(4-(2-aminoethyl)-2,3-dioxopiperazine-1-carboxamido)-2-(5-chloro-2-fluoro-4-hydroxyphenyl)acetamido)-2-hydroxy-3,4-dihydro-2H-benzo[e][1,2]oxaborinine-8-carboxylic acid] | > 128 µg/mL | 8 to 16 µg/mL (≈ 13.5 to 27 µM) | 8 to 16 µg/mL (≈ 13.5 to 27 µM) | < 0.25 µg/mL | 0.5 to 1 µg/mL (≈ 0.845 to 1.69 µM) | > 128 µg/mL | 32 to 64 µg/mL (≈ 54.1 to 108 µM) | 8 to 16 µg/mL (≈ 13.5 to 27 µM) | D (D represents a potency <10 μM) |
| NCCN1CCN(C(=O)N[C@@H](C(=O)N[C@H]2Cc3cccc(C(=O)O)c3OB2O)c2cc(Cl)c(O)cc2Cl)C(=O)C1=O [Example 90, (R)-3-((R)-2-(4-(2-aminoethyl)-2,3-dioxopiperazine-1-carboxamido)-2-(2,5-dichloro-4-hydroxyphenyl)acetamido)-2-hydroxy-3,4-dihydro-2H-benzo[e][1,2]oxaborinine-8-carboxylic acid] | > 128 µg/mL | 32 to 64 µg/mL (≈ 52.6 to 105 µM) | > 128 µg/mL | 0.5 to 1 µg/mL (≈ 0.822 to 1.64 µM) | 32 to 64 µg/mL (≈ 52.6 to 105 µM) | > 128 µg/mL | > 128 µg/mL | > 128 µg/mL | D (D represents a potency <10 μM) |
| NCCN1CCN(C(=O)NC(C(=O)N[C@H]2Cc3cccc(C(=O)O)c3OB2O)c2cc(F)c(O)cc2F)C(=O)C1=O (stereo partly drawn) [Example 93, (3R)-3-(2-(4-(2-aminoethyl)-2,3-dioxopiperazine-1-carboxamido)-2-(2,5-difluoro-4-hydroxyphenyl)acetamido)-2-hydroxy-3,4-dihydro-2H-benzo[e][1,2]oxaborinine-8-carboxylic acid] | > 128 µg/mL | 8 to 16 µg/mL (≈ 13.9 to 27.8 µM) | 8 to 16 µg/mL (≈ 13.9 to 27.8 µM) | 0.5 to 1 µg/mL (≈ 0.869 to 1.74 µM) | 2 to 4 µg/mL (≈ 3.48 to 6.95 µM) | > 128 µg/mL | 32 to 64 µg/mL (≈ 55.6 to 111 µM) | 32 to 64 µg/mL (≈ 55.6 to 111 µM) | D (D represents a potency <10 μM) |
